Measurements: ChEMBL document CHEMBL1128900, “Non-peptidic inhibitors of neutral endopeptidase 24.11 1. Discovery and optimization of potency” (Bioorg Med Chem Lett, 1995)
pIC50: −log10 of the molar value.

The compounds below were run against T1, Neprilysin (Rattus norvegicus, UniProt P07861) (assay: In vitro inhibitory activity against neutral endopeptidase (NEP)).
T1 sequence (P07861 whole entry): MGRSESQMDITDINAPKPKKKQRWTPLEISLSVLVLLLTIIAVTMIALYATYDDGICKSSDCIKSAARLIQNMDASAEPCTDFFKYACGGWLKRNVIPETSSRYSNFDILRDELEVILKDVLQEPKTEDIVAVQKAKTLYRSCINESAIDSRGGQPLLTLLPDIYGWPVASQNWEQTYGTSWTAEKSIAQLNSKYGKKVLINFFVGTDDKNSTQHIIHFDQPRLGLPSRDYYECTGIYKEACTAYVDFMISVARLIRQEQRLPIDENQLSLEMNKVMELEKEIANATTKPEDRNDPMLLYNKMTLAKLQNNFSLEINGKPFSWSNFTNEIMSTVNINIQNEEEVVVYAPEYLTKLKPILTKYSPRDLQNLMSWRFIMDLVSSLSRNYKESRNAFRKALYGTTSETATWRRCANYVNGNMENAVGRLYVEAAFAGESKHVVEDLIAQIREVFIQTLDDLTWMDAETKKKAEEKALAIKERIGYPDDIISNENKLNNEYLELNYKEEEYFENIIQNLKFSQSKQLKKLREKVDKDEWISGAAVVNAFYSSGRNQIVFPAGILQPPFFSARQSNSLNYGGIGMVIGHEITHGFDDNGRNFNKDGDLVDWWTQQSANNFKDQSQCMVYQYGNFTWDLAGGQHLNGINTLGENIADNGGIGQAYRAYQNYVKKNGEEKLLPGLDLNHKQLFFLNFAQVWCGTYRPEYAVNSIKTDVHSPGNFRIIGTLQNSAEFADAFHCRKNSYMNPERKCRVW
Work on O=C(O)CCNC(=O)[C@H](Cc1ccc(-c2ccccc2)cc1)NCP(=O)(O)O yielded a pIC50 of 5.72.
O=P(O)(O)CN[C@@H](Cc1ccc(-c2ccccc2)cc1)c1nnnn1Cc1ccccc1 was tested, and the pIC50 was < 6.00.
CN(CP(=O)(O)O)[C@@H](Cc1ccc(-c2ccccc2)cc1)c1nnn[nH]1 showed a pIC50 of 6.28.
O=P(O)(O)CN[C@@H](Cc1ccccc1)c1nnn[nH]1 showed a pIC50 of 7.59.
For O=P(O)(O)CNC(c1nnn[nH]1)C(c1ccccc1)c1ccccc1 (configuration not stated), the pIC50 was < 6.00.
For O=C(O)[C@H](Cc1ccc(-c2cccnc2)cc1)NCP(=O)(O)O, the pIC50 was < 6.00.
Work on CC(C)Oc1ccc(C[C@H](NCP(=O)(O)O)c2nnn[nH]2)cc1 yielded a pIC50 of 7.82.
In the case of O=C(O)C(Cc1cccc(-c2ccccc2)c1)NCP(=O)(O)O (configuration not stated), the pIC50 was < 6.00.
For O=C(O)C[C@H](Cc1ccc(-c2ccccc2)cc1)NCP(=O)(O)O, the pIC50 was 7.82.
With O=P(O)(O)CN[C@@H](CCc1ccccc1)c1nnn[nH]1 the pIC50 was < 5.00.
In the case of NC(=O)[C@H](Cc1ccc(-c2ccccc2)cc1)NCP(=O)(O)O, the pIC50 was 5.89.
COc1cc(C[C@H](NCP(=O)(O)O)c2nnn[nH]2)ccc1-c1ccccc1 showed a pIC50 of 8.82.
In the case of O=C(O)CC[C@H](Cc1ccc(-c2ccccc2)cc1)NCP(=O)(O)O, the pIC50 was 6.19.
With O=C(O)[C@H](Cc1ccccc1)NCP(=O)(O)O the pIC50 was < 6.00.
O=C(Nc1nn[nH]n1)[C@H](Cc1ccc(-c2ccccc2)cc1)NCP(=O)(O)O was tested, and the pIC50 was 8.85.
With COc1cc(C[C@H](NCP(=O)(O)O)C(=O)O)ccc1-c1ccccc1 the pIC50 was 7.85.
For O=C(O)/C=C/[C@H](Cc1ccc(-c2ccccc2)cc1)NCP(=O)(O)O, the pIC50 was 7.49.
Compound Cc1ccc(-c2ccc(C[C@H](NCP(=O)(O)O)C(=O)O)cc2)cc1 has a pIC50 of 6.63.
Compound O=P(O)(O)CN[C@@H](Cc1ccc2ccccc2c1)c1nnn[nH]1 has a pIC50 of 6.44.
In the case of O=C(O)[C@H](Cc1ccc(-c2ccccc2)cc1)NCCP(=O)(O)O, the pIC50 was < 5.00.
In the case of O=C(NCc1ccccc1)[C@H](Cc1ccc(-c2ccccc2)cc1)NCP(=O)(O)O, the pIC50 was 6.51.
O=C(O)C(Cc1ccccc1-c1ccccc1)NCP(=O)(O)O (configuration not stated) was tested, and the pIC50 was < 6.00.
